Test results taken from patent US12391701B2, “Chromene-based compounds, methods and uses thereof” (University of Minho, priority 2019, dated 2025).

Key:
[1] = system: CAM (chicken chorioallantoic membrane) blood vessels; test: CAM assay, angiogenesis; format: in vivo; conditions: 2× the IC50 value; after 4 days of treatment
Procedure: In an embodiment, the in vivo capacity of the compounds to inhibit angiogenesis was analysed using the CAM model. To assess the effect on angiogenesis, sterilized 5-mm diameter filter disks were impregnated in culture medium with fixed concentration (2× the IC50 value) of the chromenes MC408 and MC421 or 0.5% DMSO (control group) and were placed onto the vascular area of CAM.
In an embodiment, CAM assay was performed. Fertilized chicken eggs were incubated at 37° C. and at day 3 of development, a window was opened into the eggshell after puncturing the air chamber. The window was sealed with BTK tape and returned to the incubator. On day 9 of development, Hs578t cells (2×10^6 cells) or 786-O cells (3.5×10^6 cells) with Matrigel (10 μL) were placed on CAM, allowing tumor formation and the eggs were tapped and returned to the incubator. At day 14 of development, the tumors were photographed. The treated groups received 20 μL of 2×IC50 concentration of MC408 or MC421 in complete DMEM (for Hs578t cells) or complete RPMI (for 786-O cells) media and the controls received 20 μL of 0.5% DMSO in complete DMEM or RPMI; these were added over the formed tumor. After 72 hours of treatment (day 17 of development), the tumors were photographed again in ovo. Sacrifice of chicken embryos was performed at −80° C. for 10 minutes and the CAM alone was fixed with paraformaldehyde at 4% before being photographed again ex ovo.

786-O cells [2] = test: Annexin V/PI flow cytometry, 786-O; format: cell-based; conditions: IC50 concentration; 24 h
From the text: In an embodiment, to understand the mechanisms leading to cell death, cells were studied for the induction of apoptosis by flow cytometry. […] Externalization of phosphatidylserine occurs during the early apoptotic events. While annexin V binds to phosphatidylserine, PI stains only cells that have lost their membrane integrity, an experimental procedure which allows the discrimination between viable cells, early apoptotic cells, late apoptotic/necrotic cells or necrotic cells.
In an embodiment, MCF-7, Hs578t and 786-O cells were seeded in 6-well culture plates and allowed to adhere over 18-20 hours in a complete DMEM (for MCF-7 and Hs578t cells) and complete RPMI (for 786-O cells) medium to detect apoptosis via flow cytometry analysis. […] Triplicates were performed in each experiment. Floating and adherent cells were collected and combined by centrifugation. Elimination of the supernatant was followed by addition of 1 mL of Binding Buffer. 8 μL FITC annexin V (556419, BD Pharmingen) and 30 μl of PI (50 μg/mL, P1304MP, Invitrogen) were added to the cell pellet. Samples were incubated in the dark for 15 min at room temperature. A further 200 μL of Binding Buffer was added to each sample. PI signal was measured using FACS LSRII flow cytometer (BD Biosciences®) with 488 nm excitation laser. […] The percentage of cells in each phase was analysed using the FlowJo 7.6 (Tree Star®) software. […]

[3] = system: TNBC cell line MDA-MB-231; test: Orthotopic breast cancer xenograft in NSG mice; format: in vivo
Procedure: In an embodiment, the in vivo therapeutic efficacy of compound MC408 was analysed using the mouse model. […] MDA-MB-231 cells were injected into the mammary fat pad of NSG mice (n=6 or 7 per group). Treatment was administered 3 days post-implantation for one week. NT=Vehicle; Dose 1=3 mg/kg; Dose 2=10 mg/kg; Dose 3=50 mg/kg. *, p<0.05; **, p<0.01; ****, p<0.0001 (compared to NT group; two-way ANOVA post-hoc Tukey's test or unpaired t-test with Welch's correction).
In an embodiment, NSG (NOD Scid Gamma) female mice (3-6 months) were injected with a mixture of 0.6×10^6 MDA-MB-231 breast cancer cells and matrigel (ratio 1:1) in the mammary fat pad. Mice were randomly assigned to treatment groups (at least 6 mice/group), which was started 3 days post-implantation using 3 independent doses of compound MC408 (dose 1=3 mg/kg, dose 2=10 mg/kg, and dose 3=50 mg/kg) or vehicle (PBS 1× and Matrigel, ratio 1:1), and was administered daily for 7 days. Mice were maintained under standard laboratory conditions. Animal tumor size (calculated by measuring the two largest sides and applying the formula: v=3.14×L1×L1×L2/6; being L1 the largest side, and L2 the other one) was measured and recorded regularly. At day 47 post-implantation, animals were sacrificed and tumors were excised. All animal procedures were conducted in accordance with the guidelines for the care and use of laboratory animals (European Directive 2010/63/EU).

786-O cells [4] = test: BrdU proliferation assay, 786-O; format: cell-based; conditions: 48 hours; IC50 and ½IC50
Procedure: In an embodiment, the effect of preferred chromene-based compounds on cell proliferation was evaluated. […] Results are presented as mean±SD at least three independent experiments. *p<0.05, **p<0.01, ***p<0.0005, ****p<0.0001 compared to control (0.5% DMSO). The significance of the difference between different groups was determined with Student t test. […] Exceptions are observed for compounds MC409, MC410 and MC368.
In an embodiment, proliferation assay was performed. 786-O cells were plated in 96-well plates at a density of 7000 cells/[…], and allowed to incubate overnight at 37° C. in a 5% CO2 humidified atmosphere. […] After incubation, cells were labelled by addition of 10 μl/well BrdU labelling solution (final concentration: 40 μM BrdU). The cells were then re-incubated for 16 h to allow BrdU to incorporate into the proliferating cell DNA, replacing thymidine. […] The immune complexes were detected by the addition of substrate solution (100 μl/well) and the plate was incubated at room temperature until color development was satisfactory for photometric detection (5-10 min). […] The reaction product was quantified by measuring absorbance at 450 nm (reference wavelength: 690 nm) in microplate reader (Tecan Infinite M200). […] The results of at least three independent experiments (in quadruplicate) were evaluated using GraphPad Prism 5 software.

[5] = 3, 10, 50 mg/kg daily for 7 days, dose-dependent

Structure (SMILES)	formation of novel blood vessels [1]	pre-existing blood vessels [1]	induction of cell death by apoptosis (annexin V/PI) (786-O cells [2])	tumor volume [3, 5]	tumor weight [3, 5]	reduction of tumor volume comparing to the vehicle group ([3]; dose of 50 mg/kg)	reduction of tumor weight comparing to the vehicle group ([3]; dose of 50 mg/kg)	weight loss and other side effects ([3]; tested treatment regimen, whole experiment)	effect on cell proliferation (BrdU incorporation) (786-O cells [4])
COc1cccc2c1Oc1nc(-c3ccc(Br)cc3)[nH]c1C2 [MC408, 2-(4-bromophenyl)-5-methoxy-3,9-dihydrochromeno[2,3-d]imidazoles]	decreased	disruption	inducing cell death by apoptosis (early apoptosis)	significantly decreased	significantly decreased	more than 40%	more than 40%	no weight loss nor other side effects	–
COc1cccc2c1Oc1nc(-c3ccc(F)cc3)[nH]c1C2 [MC409, 2-(4-fluorophenyl)-5-methoxy-3,9-dihydrochromeno[2,3-d]imidazoles]	–	–	–	–	–	–	–	–	Exceptions
COc1cccc2c1Oc1nc(-c3cc(F)cc(F)c3O)[nH]c1C2 [MC410, 2,4-difluoro-6-(5-methoxy-3,9-dihydrochromeno[2,3-d]imidazol-2-yl)phenol]	–	–	–	–	–	–	–	–	Exceptions
COc1cccc2c1Oc1nc(-c3ccc(Br)cc3)[nH]c1C2C1c2cccc(OC)c2Oc2nc(-c3ccc(Br)cc3)[nH]c21 (stereo not shown) [MC421, 2,2′-bis(4-bromophenyl)-5,5′-dimethoxy-1,1,9,9′-tetrahydro-9,9′-bichromeno[2,3-]imidazoles]	decreased	disruption	inducing cell death by apoptosis (early apoptosis)	–	–	–	–	–	–
